Measured values: US8765677B2 (priority 2009, dated 2014)
“Also recorded” adds a separate entry of the source. Where a SMILES comes first, the peptide text is derived from it.

Key:
[1] = system: excitatory synaptic transmission between primary afferents and dorsal horn superficial lamina neurons; assay type: cell-based, rat
N-type VGCCs = N-type VGCCs (Rattus norvegicus, UniProt Q02294); assay: biochemical; assay type: binding
[2] = system: mice with CFA-induced mechanical allodynia; settings: mouse, in vivo, sc
[3] = system: native VGCCs in DRG sensory neurons; assay type: cell-based, rat; settings: for maximum inhibition of inward Ba2+ current: 0.1 µM
[4] = system: nerve injury model of neuropathic pain; settings: rat, in vivo
Sprague-Dawley rats = settings: rat, in vivo
[5] = target: recombinant Cav2.3 α1E (R-type) channels (α/α2δ1/β3) (Rattus norvegicus, UniProt Q07652); assay type: cell-based
Sequence of recombinant Cav2.3 α1E (R-type) channels (α/α2δ1/β3) (Q07652 whole entry, looked up): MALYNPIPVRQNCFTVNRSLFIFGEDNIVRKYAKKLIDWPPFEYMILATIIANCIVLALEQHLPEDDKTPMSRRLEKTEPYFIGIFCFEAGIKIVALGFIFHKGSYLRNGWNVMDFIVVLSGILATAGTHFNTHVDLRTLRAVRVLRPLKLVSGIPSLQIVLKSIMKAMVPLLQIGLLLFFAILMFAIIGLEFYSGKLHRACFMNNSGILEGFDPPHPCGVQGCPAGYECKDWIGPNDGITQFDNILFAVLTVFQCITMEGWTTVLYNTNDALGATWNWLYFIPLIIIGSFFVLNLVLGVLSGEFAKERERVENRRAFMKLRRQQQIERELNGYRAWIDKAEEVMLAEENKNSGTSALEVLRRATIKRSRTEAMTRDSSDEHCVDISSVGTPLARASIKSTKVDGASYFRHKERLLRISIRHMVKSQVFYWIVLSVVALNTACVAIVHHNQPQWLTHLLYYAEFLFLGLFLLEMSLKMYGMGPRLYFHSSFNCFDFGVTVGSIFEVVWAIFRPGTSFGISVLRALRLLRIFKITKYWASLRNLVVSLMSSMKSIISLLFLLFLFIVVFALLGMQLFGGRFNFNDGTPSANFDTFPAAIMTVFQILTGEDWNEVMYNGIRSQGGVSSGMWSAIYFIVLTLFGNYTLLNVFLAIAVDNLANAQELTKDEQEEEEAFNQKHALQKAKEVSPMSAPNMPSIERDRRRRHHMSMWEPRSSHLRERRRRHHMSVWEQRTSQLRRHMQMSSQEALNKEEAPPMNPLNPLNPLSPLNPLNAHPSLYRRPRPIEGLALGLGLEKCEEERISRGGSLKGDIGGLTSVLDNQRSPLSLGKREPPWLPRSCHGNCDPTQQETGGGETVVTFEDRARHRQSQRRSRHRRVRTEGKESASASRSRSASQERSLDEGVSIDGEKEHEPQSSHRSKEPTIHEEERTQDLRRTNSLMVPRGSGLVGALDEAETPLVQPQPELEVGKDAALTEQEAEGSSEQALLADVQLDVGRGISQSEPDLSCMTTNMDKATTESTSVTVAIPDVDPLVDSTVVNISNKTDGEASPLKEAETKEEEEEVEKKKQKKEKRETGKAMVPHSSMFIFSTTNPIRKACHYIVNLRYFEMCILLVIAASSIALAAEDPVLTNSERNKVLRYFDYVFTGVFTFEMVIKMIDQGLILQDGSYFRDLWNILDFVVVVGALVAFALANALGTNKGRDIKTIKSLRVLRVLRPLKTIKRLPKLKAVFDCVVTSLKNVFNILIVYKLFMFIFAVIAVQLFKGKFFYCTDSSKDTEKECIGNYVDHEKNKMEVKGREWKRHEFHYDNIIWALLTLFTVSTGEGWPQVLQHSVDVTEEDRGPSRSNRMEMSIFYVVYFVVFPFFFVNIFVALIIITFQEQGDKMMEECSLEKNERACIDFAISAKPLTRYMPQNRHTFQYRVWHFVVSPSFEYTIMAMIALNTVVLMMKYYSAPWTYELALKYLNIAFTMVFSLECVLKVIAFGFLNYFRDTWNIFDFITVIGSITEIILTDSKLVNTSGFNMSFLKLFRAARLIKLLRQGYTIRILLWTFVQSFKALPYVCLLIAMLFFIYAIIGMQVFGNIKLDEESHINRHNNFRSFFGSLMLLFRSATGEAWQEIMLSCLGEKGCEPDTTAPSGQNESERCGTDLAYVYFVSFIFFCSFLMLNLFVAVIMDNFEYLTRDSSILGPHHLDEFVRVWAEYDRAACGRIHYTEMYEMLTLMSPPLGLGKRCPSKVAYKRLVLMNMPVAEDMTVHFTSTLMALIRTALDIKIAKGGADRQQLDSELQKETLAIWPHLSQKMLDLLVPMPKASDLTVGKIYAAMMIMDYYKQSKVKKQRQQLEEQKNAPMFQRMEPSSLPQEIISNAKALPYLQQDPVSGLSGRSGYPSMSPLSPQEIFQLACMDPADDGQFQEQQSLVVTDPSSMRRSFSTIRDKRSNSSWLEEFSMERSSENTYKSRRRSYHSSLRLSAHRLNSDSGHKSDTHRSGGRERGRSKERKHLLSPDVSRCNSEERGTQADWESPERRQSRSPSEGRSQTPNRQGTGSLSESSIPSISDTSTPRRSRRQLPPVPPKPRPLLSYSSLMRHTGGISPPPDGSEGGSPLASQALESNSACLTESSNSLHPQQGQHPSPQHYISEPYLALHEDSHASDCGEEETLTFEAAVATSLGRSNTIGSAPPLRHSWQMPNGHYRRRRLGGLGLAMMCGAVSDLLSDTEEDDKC

[6] = target: recombinant Cav1.3 α1D (L-type) channels (α/α2δ1/β3) (Rattus norvegicus, UniProt P27732); assay type: cell-based
[7] = target: recombinant Cav1.2 α1C (L-type) channels (α/α2δ1/β3) (Oryctolagus cuniculus, UniProt P15381); assay type: cell-based, rabbit
[8] = target: recombinant Cav2.1 α1A (P/Q-type) channels (α/α2δ1/β3) (Oryctolagus cuniculus, UniProt P27884); assay: cell-based; set-up: species or system rabbit
[9] = target: recombinant N-type (Cav2.2) VGCCs α1B-b/α2δ1/β3 (Rattus norvegicus, UniProt Q02294); assay: cell-based; assay type: cell-based
Sequence of recombinant N-type (Cav2.2) VGCCs α1B-b/α2δ1/β3 (Q02294 whole entry, looked up): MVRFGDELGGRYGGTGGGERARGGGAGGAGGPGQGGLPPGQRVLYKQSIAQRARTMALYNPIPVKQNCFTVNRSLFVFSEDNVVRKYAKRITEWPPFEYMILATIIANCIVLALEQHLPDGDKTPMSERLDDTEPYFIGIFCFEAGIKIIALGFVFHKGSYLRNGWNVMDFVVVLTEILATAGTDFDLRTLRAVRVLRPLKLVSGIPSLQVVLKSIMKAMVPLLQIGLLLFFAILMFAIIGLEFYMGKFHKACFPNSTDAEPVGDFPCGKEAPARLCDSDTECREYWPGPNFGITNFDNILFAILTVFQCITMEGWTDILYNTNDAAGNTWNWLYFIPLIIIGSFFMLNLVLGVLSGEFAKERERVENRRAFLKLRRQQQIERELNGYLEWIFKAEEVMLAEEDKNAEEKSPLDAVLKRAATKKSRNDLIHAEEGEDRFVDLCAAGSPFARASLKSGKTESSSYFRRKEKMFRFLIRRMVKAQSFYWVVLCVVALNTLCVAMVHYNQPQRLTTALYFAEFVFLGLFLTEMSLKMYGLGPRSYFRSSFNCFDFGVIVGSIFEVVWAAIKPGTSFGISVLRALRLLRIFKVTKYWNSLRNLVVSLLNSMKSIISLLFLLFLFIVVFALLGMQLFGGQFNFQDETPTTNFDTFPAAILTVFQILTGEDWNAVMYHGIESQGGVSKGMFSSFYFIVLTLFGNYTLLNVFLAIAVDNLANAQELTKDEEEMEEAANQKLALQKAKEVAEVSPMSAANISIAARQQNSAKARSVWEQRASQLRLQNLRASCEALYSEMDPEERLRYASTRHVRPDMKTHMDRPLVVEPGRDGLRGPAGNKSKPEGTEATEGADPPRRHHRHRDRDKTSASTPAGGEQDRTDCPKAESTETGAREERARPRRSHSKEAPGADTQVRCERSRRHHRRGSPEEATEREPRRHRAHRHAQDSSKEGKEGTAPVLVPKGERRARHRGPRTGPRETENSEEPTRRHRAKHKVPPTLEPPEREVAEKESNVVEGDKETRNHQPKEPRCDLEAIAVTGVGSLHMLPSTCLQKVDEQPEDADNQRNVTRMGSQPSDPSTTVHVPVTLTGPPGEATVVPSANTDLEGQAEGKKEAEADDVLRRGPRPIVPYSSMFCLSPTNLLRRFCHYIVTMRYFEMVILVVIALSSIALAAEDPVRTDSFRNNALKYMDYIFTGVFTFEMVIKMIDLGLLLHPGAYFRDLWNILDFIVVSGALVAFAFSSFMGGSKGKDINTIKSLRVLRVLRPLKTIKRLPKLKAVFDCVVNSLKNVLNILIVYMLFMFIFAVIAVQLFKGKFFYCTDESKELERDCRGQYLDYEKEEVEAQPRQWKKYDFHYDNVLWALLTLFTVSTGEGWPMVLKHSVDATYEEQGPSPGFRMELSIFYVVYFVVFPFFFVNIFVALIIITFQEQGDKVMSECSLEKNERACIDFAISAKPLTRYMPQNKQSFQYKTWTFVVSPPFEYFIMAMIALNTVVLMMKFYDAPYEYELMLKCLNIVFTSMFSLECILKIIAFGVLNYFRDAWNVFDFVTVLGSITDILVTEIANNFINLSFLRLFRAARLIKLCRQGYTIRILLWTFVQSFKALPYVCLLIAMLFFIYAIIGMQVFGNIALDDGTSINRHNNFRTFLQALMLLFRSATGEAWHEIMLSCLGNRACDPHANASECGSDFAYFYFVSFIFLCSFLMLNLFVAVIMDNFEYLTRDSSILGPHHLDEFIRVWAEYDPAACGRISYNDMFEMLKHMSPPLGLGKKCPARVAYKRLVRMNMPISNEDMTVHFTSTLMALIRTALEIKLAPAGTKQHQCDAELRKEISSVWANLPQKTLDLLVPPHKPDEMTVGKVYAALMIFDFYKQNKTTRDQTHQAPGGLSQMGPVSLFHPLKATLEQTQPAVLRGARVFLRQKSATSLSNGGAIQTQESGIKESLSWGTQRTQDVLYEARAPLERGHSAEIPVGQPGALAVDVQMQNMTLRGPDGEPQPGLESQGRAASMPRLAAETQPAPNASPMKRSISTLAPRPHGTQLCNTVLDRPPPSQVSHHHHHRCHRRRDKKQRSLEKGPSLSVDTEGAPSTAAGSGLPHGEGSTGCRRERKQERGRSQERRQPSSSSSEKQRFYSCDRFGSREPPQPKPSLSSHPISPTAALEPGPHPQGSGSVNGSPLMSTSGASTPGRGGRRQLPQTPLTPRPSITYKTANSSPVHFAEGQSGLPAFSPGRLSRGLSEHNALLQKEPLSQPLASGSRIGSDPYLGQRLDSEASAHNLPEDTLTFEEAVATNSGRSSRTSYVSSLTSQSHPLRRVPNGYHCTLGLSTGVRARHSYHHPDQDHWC

[10] = target: recombinant N-type (Cav2.2) VGCCs α1B-b/α2δ1/β2a (Rattus norvegicus, UniProt Q02294); assay type: cell-based
Sequence of recombinant N-type (Cav2.2) VGCCs α1B-b/α2δ1/β2a (Q02294 whole entry, looked up): as above

[11] = system: low-voltage-activated T-type VGCC in DRG neurons; assay type: cell-based, rat

Sequence of N-type VGCCs (Q02294 whole entry, looked up): as above

SMILES	EPSC amplitude recovered after washout [1]	reduction of evoked monosynaptic EPSC amplitude [1]	displacement of 125I-GVIA binding (N-type VGCCs)	IC50 (N-type VGCCs; affinity)	IC50 (N-type VGCCs; pIC50)	reversal of incapacitance [2]	maximum inhibition of inward Ba2+ current [3]	relief of mechanical allodynia [4]	side effects (shakes, tail twitching, serpentine tail movements) (Sprague-Dawley rats)	effect on Cav2.3 channels [5]	effect on Cav1.3 channels [6]	effect on Cav1.2 channels [7]	effect on Cav2.1 channels [8]	Hill slope [9]	Hill slope [10]	effect on T-type current [11]	effect on P/Q- and L-type VGCC current components [3]
C[C@@H]1NC(=O)CNC(=O)[C@H](CCCCN)NC(=O)CNC(=O)[C@H](CCCCN)NC(=O)[C@@H](N)CSSC[C@@H]2NC(=O)[C@@H]3CSSC[C@@H](C(N)=O)NC(=O)[C@H](CCCNC(=N)N)NC(=O)CNC(=O)[C@H](CO)NC(=O)[C@H](CCCNC(=N)N)NC(=O)[C@H](CSSC[C@H](NC(=O)[C@H](CO)NC1=O)C(=O)N[C@@H](CCCNC(=N)N)C(=O)N[C@@H](CCCNC(=N)N)C(=O)N[C@@H]([C@@H](C)O)C(=O)N[C@@H](CO)C(=O)N[C@@H](Cc1ccc(O)cc1)C(=O)N[C@@H](CC(=O)O)C(=O)N3)NC(=O)[C@H](CO)NC(=O)CNC(=O)[C@H]([C@@H](C)O)NC2=O [CVIE, CKGKGASCRRTSYDCCTGSCRSGRC]	78±7 % of control	67±5%	fully displaced	0.037 nM	0.02 nM	highly significant reversal of incapacitance; also recorded: subsided	~50%	completely relieves mechanical allodynia; also recorded: relieved mechanical allodynia	substantially decreased side effects compared to CVID								
CC(C)C[C@@H]1NC(=O)[C@H](CCCNC(=N)N)NC(=O)[C@@H]2CSSC[C@@H]3NC(=O)[C@H](CO)NC(=O)[C@H](C)NC(=O)CNC(=O)[C@H](CCCCN)NC(=O)CNC(=O)[C@H](CCCCN)NC(=O)[C@@H](N)CSSC[C@H](NC(=O)[C@H](CSSC[C@@H](C(N)=O)NC(=O)[C@H](CCCNC(=N)N)NC(=O)CNC1=O)NC(=O)[C@H](CC(=O)O)NC(=O)[C@H](Cc1ccc(O)cc1)NC(=O)[C@H](CO)NC(=O)[C@H]([C@@H](C)O)NC(=O)[C@H](CCCCN)NC(=O)[C@H](CCCNC(=N)N)NC3=O)C(=O)N[C@@H]([C@@H](C)O)C(=O)NCC(=O)N[C@@H](CO)C(=O)N2 [[R10K]CVIF] (HELM PEPTIDE1{C.K.G.K.G.A.S.C.R.K.T.S.Y.D.C.C.T.G.S.C.R.L.G.R.C.[am]}$PEPTIDE1,PEPTIDE1,1:R3-16:R3|PEPTIDE1,PEPTIDE1,8:R3-20:R3|PEPTIDE1,PEPTIDE1,15:R3-25:R3$$$V2.0)						highly significant reversal of incapacitance; also recorded: sustained		relieved mechanical allodynia	substantially decreased side effects compared to CVID	neither [R10K]CVIE or [R10K]CVIF had any effect	neither [R10K]CVIE or [R10K]CVIF had any effect	neither [R10K]CVIE or [R10K]CVIF had any effect	neither [R10K]CVIE or [R10K]CVIF had any effect	0.65±0.04	0.86±0.04		
CC(C)C[C@@H]1NC(=O)[C@H](CCCNC(=N)N)NC(=O)[C@@H]2CSSC[C@@H]3NC(=O)[C@H](CO)NC(=O)[C@H](C)NC(=O)CNC(=O)[C@H](CCCCN)NC(=O)CNC(=O)[C@H](CCCCN)NC(=O)[C@@H](N)CSSC[C@H](NC(=O)[C@H](CSSC[C@@H](C(N)=O)NC(=O)[C@H](CCCNC(=N)N)NC(=O)CNC1=O)NC(=O)[C@H](CC(=O)O)NC(=O)[C@H](Cc1ccc(O)cc1)NC(=O)[C@H](CO)NC(=O)[C@H]([C@@H](C)O)NC(=O)[C@H](CCCNC(=N)N)NC(=O)[C@H](CCCNC(=N)N)NC3=O)C(=O)N[C@@H]([C@@H](C)O)C(=O)NCC(=O)N[C@@H](CO)C(=O)N2 [CVIF] (HELM PEPTIDE1{C.K.G.K.G.A.S.C.R.R.T.S.Y.D.C.C.T.G.S.C.R.L.G.R.C.[am]}$PEPTIDE1,PEPTIDE1,1:R3-16:R3|PEPTIDE1,PEPTIDE1,8:R3-20:R3|PEPTIDE1,PEPTIDE1,15:R3-25:R3$$$V2.0)	73±10 % of control	61±7%	fully displaced			significant reversal of incapacitance; also recorded: subsided	~50%	completely relieves mechanical allodynia; also recorded: relieved mechanical allodynia	substantially decreased side effects compared to CVID							not affected	does not affect
C[C@@H](O)[C@@H]1NC(=O)[C@H](Cc2ccc(O)cc2)NC(=O)[C@@H]2C[C@@H](O)CN2C(=O)[C@H](CC(N)=O)NC(=O)[C@@H]2CSSC[C@@H]3NC(=O)[C@H](CO)NC(=O)[C@H](CO)NC(=O)CNC(=O)[C@@H]4C[C@@H](O)CN4C(=O)[C@H](CO)NC(=O)[C@H](CCCCN)NC(=O)[C@@H](N)CSSC[C@H](NC(=O)[C@H](CSSC[C@@H](C(=O)N[C@@H](Cc4ccc(O)cc4)C(N)=O)NC(=O)[C@H](CCCN=C(N)N)NC(=O)[C@H](CCCCN)NC1=O)NC(=O)[C@H](CC(N)=O)NC(=O)[C@H](Cc1ccc(O)cc1)NC(=O)[C@H](CO)NC(=O)[C@H]([C@@H](C)O)NC(=O)[C@@H]1C[C@@H](O)CN1C(=O)[C@H](CO)NC3=O)C(=O)N[C@@H](CCCN=C(N)N)C(=O)N[C@@H](CO)C(=O)N2 [GVIA, reference compound]				0.024 nM	0.0251 nM												
